Source: article PMC6023200, “High content, high-throughput screening for small molecule inducers of NF-κB translocation” (PLoS ONE, 2018)
Like-named read-outs stand apart in the source and are kept apart here.

What was measured:
[1] = HepG2 cytotoxicity assay (CellTiter-Glo); conditions: human, HepG2 cells
Description: (§1) Cells were seeded in 384-well plates at 1800 cells per well and incubated in a humidified incubator at 37°C, 5% CO2. Compounds were solubilized in 100% DMSO and assayed using a 10-point three-fold serial dilution. Compounds were added 24 hours post cell seeding to a final assay concentration of 1% DMSO and highest compound concentration of 100 μM. CellTiter-Glo® reagent (Promega) was added to 384-well plates after a 72-hour incubation period. Relative luminescent units (RLU) were measured using a Synergy 4 plate reader (Biotek). Raw data were normalized using the average RLU value from negative control (1% DMSO) and expressed as % growth. Growth inhibition curves were fitted using the Levenberg–Marquardt algorithm. The IC50 was defined as the compound concentration that produced 50% of the growth inhibitory response.

[2] = test system: HepG2 human cell line; test: HepG2 cytotoxicity assay (CellTiter-Glo); conditions: HepG2 IC50 / HUVEC EC50
Description: as §1

[3] = test system: NF-κB nuclear translocation in HUVECs; test: NF-κB nuclear translocation assay (high content imaging, p65 NUC/CYT); type: cell-based, Human; conditions: for EC50: Homo sapiens, HUVEC; for NF-κB nuclear translocation in response to different inducers vs negative control (1% DMSO): HUVECs stimulated 30 min, 100 ng/mL LPS, 10 μM PMA, 10 μM prostratin, 10 μM calcimycin
Description: HUVEC cells were seeded at 2500 cells/well in 384-well plates in EBM^TM-2 Basal Medium plus 2% FBS overnight at 37°C in a humidified 5% CO2 incubator. Compounds (columns 3–22) and DMSO (columns 1, 2, 23 and 24) were added to cells using a JANUS Automated Liquid Handling Workstation (Perkin Elmer). […] Plates were incubated at 37°C for 30 min in a humidified 5% CO2 incubator following addition of compounds and controls.
All washing and immunofluorescence staining steps were performed using an EL406 Automated Washer Dispenser (Biotek). Briefly, cells were fixed with 4% paraformaldehyde at RT for 15 min. Cells were washed and incubated at RT for 30 min in 0.05% Triton X-100, 0.25% IgG-free BSA, 0.25% normal goat serum in Tris-buffered saline. Cells were stained with the p65 Mouse Monoclonal Primary Antibody (Santa Cruz, sc-8008) at a final concentration of 1 μg/mL in TBS, 0.05% Triton X-100,.25% IgG-free BSA and incubated overnight at 4°C. Cells were washed and stained with the Alexa Fluor 488 Goat anti-Mouse IgG (H+L) cross-adsorbed secondary antibody at a final concentration of 4 μg/mL in TBS, 0.05% TritonX-100, 0.25% IgG-free BSA for 1 hr at RT in the dark. Cells were washed and 1 μg/mL of DAPI added. Plates were sealed and imaged with an ImageXpress Micro XLS High Content Screening System (Molecular Devices) using FITC and DAPI channels at 20X magnification. Nine fields were captured for each well.
Images were analyzed using the MetaXpress software (Molecular Devices) by creating a custom analysis program in the Custom Module Editor. Briefly, DAPI was used to identify the nucleus of the cell and a nuclear mask created. A secondary mask was created by enlarging the nucleus mask to identify the whole cell. The whole cell mask was then overlaid on the nucleus mask to identify the cytoplasm. The average p65 (NF-κB) pixel intensities in both the nucleus and cytoplasm were quantified and a value assigned to each. A translocation value was calculated by determining the ratio of the average nuclei intensity to the average cytoplasmic intensity of p65 (NUC/CYT). For assay development, the Kruskal-Wallis non parametric test was used to compare the medians of the different groups after correcting for multiple comparison with Dunn’s multiple comparison test using GraphPad Prism 7.04 software. For assay validation, the mean (μ), standard deviation (SD) and coefficient of variation (CV) for nuclear translocation were calculated for the maximum (TNF-α) and minimum (DMSO) activation control wells, maximum and minimum activation plates as well as CVs for 320 test wells. The Z’ (measure of spread between maximum and minimum control signals) was calculated for each plate using the formula: Z^′=1−3(SDMax+SDMin)/|μMax−μMin|, where max is average maximum signal and min is average minimum signal. The EC50 was defined as the concentration that gave half the maximal response.

[4] = in vitro; conditions: human
Description: as §1

[5] = 0.5 h, NF-κB nuclear translocation, 10-point 3-fold dose response from 100 μM, 30 min, mean ± SD of three independent experiments (* N = 2), unit inferred, μM, read-out: EC50 = Activity in HUVECs
[6] = HUVECs, representative curve of three experiments, 4-parameter fit, dose response from 100μM, unit inferred, read-out: EC50 (Fig 8 dose response curve)

Row | Compound | IC50 at 72 h [1] [µM] | selectivity index (SI) = IC50/EC50 [2] | EC50 [3, 5] [µM] | also measured
1 | CCOC(=O)C(Cc1ccccc1)NC(=O)c1ccccc1 (centres unmarked) [IDR-0517069] | > 100 | >10 | 10 ± 1.6 | EC50 [3, 6]: 8.1 µM
2 | O=c1oc2ccccc2c2nn(Cc3ccccc3)nc12 [IDR-0131600] | 32 ± 0.7 | 1.9 | 17 ± 3.7 | 
3 | Cc1cc(OCCCNCCO)cc(C)c1Cl [IDR-0137368] | 19 ± 4.9 | 1.1 | 17 ± 14 | 
4 | O=C(/C=C1\C=CS(=O)(=O)C1)c1ccccc1 [IDR-0520796] | 6.6 ± 1.6 | 1.3 | 5 ± 5.6 | 
5 | lipopolysaccharide [LPS, reference compound] |  |  |  | NF-κB nuclear translocation in response to different inducers vs negative control (1% DMSO) ([3]; 10 ng/mL TNF-α): no difference
6 | CN(C)c1ccc(/C=C2\SC(=S)N(N)C2=O)cc1 [IDR-0605186] | > 50 | >3.3 | 15 ± 5.9 | 
7 | N#Cc1c(Cl)nc(N2CCOCC2)c(Cl)c1Cl [IDR-0112566] | 28 ± 0.7 | 7.4 | 3.8 ± 1.4 | EC50 [3, 6]: 2.1 µM
8 | CCCCNCCCCOc1ccc2ccccc2c1 [IDR-0137875] | 16 ± 0.71 | 1.1 | 15 ± 3 | 
9 | CC(=O)O[C@@]12C[C@@H](C)[C@@]3(O)[C@@H](C=C(CO)C[C@]4(O)C(=O)C(C)=C[C@@H]34)[C@@H]1C2(C)C [prostratin, reference compound] |  |  |  | NF-κB nuclear translocation in response to different inducers vs negative control (1% DMSO) ([3]; 10 ng/mL TNF-α): no difference
10 | O=C1NC(=S)SC1=Cc1ccc(O)cc1O [IDR-0133275] | > 100 | >5.5 | 18 ± 1.1 | 
11 | COc1ccc(Br)cc1/C=C(\C#N)c1nc2ccc(C)cc2[nH]1 [IDR-0605188] | 17 ± 13 | 3.6 | 4.7 ± 3.8 | 
12 | O=[N+]([O-])c1ccc(-c2nc(Cl)oc2-c2ccc([N+](=O)[O-])cc2)cc1 [IDR-0515158] | 86 ± 17 | 33 |  | EC50 ([3]; 0.5 h, read-out: EC50 = Activity in HUVECs): 2.6 ± 0.53 µM; EC50 ([3]; read-out: EC50 (Fig 8 dose response curve)): 2.2 µM
13 | Nc1ccc2c(c1)Cc1cc([N+](=O)[O-])ccc1-2 [IDR-0113345] |  | 6.3 | 8.6 ± 8.9 | IC50 [4]: 54 ± 5 µM
14 | O=C1C(=Cc2ccc(-c3ccc(Cl)cc3)o2)SC(=S)N1Cc1ccco1 [IDR-0518296] | 17 ± 12 | 7.1 | 2.4 ± 1.4 | 
15 | Cc1nn(-c2ccccc2)c2c1C(c1ccc(Cl)c(Cl)c1)C(C#N)=C(N)O2 (centres unmarked) [IDR-0516961] | 46 ± 18 | 1.8 | 25 ± 17 | 
16 | CC(=NNc1nc(Cl)c(C#N)c(Cl)c1Cl)c1ccccn1 [IDR-0112703] | 13 ± 5 | 2.1 | 6.3 ± 6 | 
17 | CNc1ccc2oc(C[C@H]3O[C@@]4(CC[C@H]3C)O[C@H]([C@H](C)C(=O)c3ccc[nH]3)[C@H](C)C[C@H]4C)nc2c1C(=O)O [calcimycin, reference compound] |  |  |  | NF-κB nuclear translocation in response to different inducers vs negative control (1% DMSO) ([3]; 10 ng/mL TNF-α): no difference
18 | Oc1ccccc1/N=C/c1c(O)c(Br)cc2oc3c(c12)CCCC3 [IDR-0139144] | 18 ± 4.2 | 1.5 | 12 ± 10 | 
19 | CCCCCCCCCCCCCC(=O)O[C@@H]1[C@@H](C)[C@@]2(O)[C@@H](C=C(CO)C[C@]3(O)C(=O)C(C)=C[C@@H]23)[C@@H]2C(C)(C)[C@]12OC(C)=O [PMA, phorbol myristate acetate, reference compound] |  |  |  | NF-κB nuclear translocation in response to different inducers vs negative control (1% DMSO) ([3]; 10 ng/mL TNF-α): no difference
20 | CCOc1cc(C=C(C#N)c2nc(-c3ccc(OC)cc3)cs2)ccc1O [IDR-0605187] | 51 ± 31 | 8.6 | 5.9 ± 3.4 | EC50 [3, 6]: 3.1 µM
21 | TNF-α |  |  |  | NF-κB nuclear translocation in response to different inducers vs negative control (1% DMSO) ([3]; 10 ng/mL TNF-α): most robust NF-κB nuclear translocation; time of maximum NF-κB activation post stimulation ([3]; HUVECs, 10 ng/mL TNF-α, fixed at 15, 30, 45 and 60 min): 30 min; EC50 of NF-κB nuclear translocation ([3]; HUVECs, 10-point 3-fold dilutions from 100 ng/mL, 30 min, across three independent experiments): 0.3 to 0.6 ng/mL
22 | Cc1cc(C)c2c(N)c(C(=O)c3ccc(Br)cc3)sc2n1 [IDR-0112706] | 27 ± 3.5 | 2.1 | 13 ± 4.5 | 
23 | COC(=O)C1=C(C)OC(N)=C(C#N)C1c1ccc(Cl)c(Cl)c1 (centres unmarked) [IDR-0122120] | 40 ± 5 | 6.1 | 6.6 ± 8.1 | 
